# Values of other authors in US20170216273A1, “Nicotine Derivatives and Methods of Use” (priority 2014, published 2017).
# Settings: approximately; no test described
structure (smiles),measurement,value
CN1CCC[C@H]1c1cccnc1 (racemic) [Racemic nicotine],potency relative to the L isomer,70-80 % of the L isomer's potency
"CN1CCC[C@@H]1c1cccnc1 (single isomer, unassigned) [D isomer of nicotine, D-nicotine]",potency relative to the L isomer,25-30 % of the L isomer's potency
